Test results reported in patent publication US20160318866A1, “SUBSTITUTED BIPIPERIDINYL DERIVATIVES” (Bayer Pharma Aktiengesellschaft, priority 2013, published 2016).
Where a name gives a salt, the structure may show the parent alone.

Tests used:
adult female Wistar rats = test: Radiotelemetric measurement of blood pressure and heart rate of conscious rats; assay type: in vivo, rat; settings: 10 mg/kg, oral, telemetry over 24 hours
Source text: A commercially available telemetry system from Data Sciences International DSI, USA, was employed for the measurements on conscious rats described below. The system consists of 3 main components: (1) implantable transmitters (Physiotel® telemetry transmitter), (2) receivers (Physiotel® receiver), which are linked via a multiplexer (DSI Data Exchange Matrix) to a (3) data acquisition computer. The telemetry system makes it possible to continuously record blood pressure, heart rate and body motion of conscious animals in their usual habitat.
The studies were conducted on adult female Wistar rats with a body weight of >200 g. After transmitter implantation, the experimental animals were housed singly in type III Makrolon® cages. They had free access to standard feed and water. The day/night rhythm in the test laboratory was set by changing the illumination of the room.
The telemetry transmitters used (PA-C40, DSI) were surgically implanted under aseptic conditions in the experimental animals at least 14 days before the first experimental use.
For the implantation, the fasted animals were anaesthetized with isoflurane (IsoFlo®, Abbott, initiation 5%, maintenance 2%) and shaved and disinfected over a large area of their abdomens. […]
Each of the instrumented rats living in the system was assigned a separate receiving antenna (RPC-1 Receiver, DSI). […] The signals emitted were detected online by a data acquisition system (Dataquest™ A.R.T. for Windows, DSI) and processed accordingly.
In the standard procedure, the following were measured for 10-second periods in each case: (1) systolic blood pressure (SBP), (2) diastolic blood pressure (DBP), (3) mean arterial pressure (MAP), (4) heart rate (HR) and (5) activity (ACT). These parameters were measured over 24 hours after administration.
The acquisition of measurements was repeated under computer control at 5-minute intervals. The source data obtained as absolute values were corrected in the diagram with the currently measured barometric pressure (Ambient Pressure Reference Monitor, APR-1, DSI). […]

[1] = system: diabetic (ZDFfa/fa) and healthy rats (Wistar); test: Assay of perfusion-enhancing substances (microcirculation), laser doppler at the paw; assay type: in vivo, rat; settings: single oral dose
Source text: In diabetic (ZDFfa/fa) and healthy rats (Wistar), a laser doppler probe was fastened under anaesthesia conditions (isoflurane anaesthesia) at the sole of the paw for measuring cutaneous microcirculation. The test animals were once treated orally with the test substances. During the experiment, microperfusion and temperature of the lower extremities were documented continuously. Here, a temperature-sensitive laser doppler probe (Periflux, O2C) was fastened with adhesive to the paws of the animals, allowing the measurement of microperfusion and skin temperature. The microcirculation measurement values were measured on both paws 30 min after oral administration of the test substance. […] Also stated is the MED for the significant increase of skin temperature (ttest).

human α2C receptor = biological target: T1, human α2C receptor (Homo sapiens, UniProt P18825); test: Antagonism against the adrenoreceptor α2C (luminescence, recombinant CHO cell line); assay type: cell-based; settings: antagonism against adrenoreceptor α2C; noradrenaline 20 nM; tested up to 10 μM; read-out: IC50
T1 construct: expressed in transfected cells; host or cells: CHO cells, also recombinantly expressing chimeric G protein Gαqi3 and mitochondrial obelin (mtOb)
T1 sequence (P18825 1-462): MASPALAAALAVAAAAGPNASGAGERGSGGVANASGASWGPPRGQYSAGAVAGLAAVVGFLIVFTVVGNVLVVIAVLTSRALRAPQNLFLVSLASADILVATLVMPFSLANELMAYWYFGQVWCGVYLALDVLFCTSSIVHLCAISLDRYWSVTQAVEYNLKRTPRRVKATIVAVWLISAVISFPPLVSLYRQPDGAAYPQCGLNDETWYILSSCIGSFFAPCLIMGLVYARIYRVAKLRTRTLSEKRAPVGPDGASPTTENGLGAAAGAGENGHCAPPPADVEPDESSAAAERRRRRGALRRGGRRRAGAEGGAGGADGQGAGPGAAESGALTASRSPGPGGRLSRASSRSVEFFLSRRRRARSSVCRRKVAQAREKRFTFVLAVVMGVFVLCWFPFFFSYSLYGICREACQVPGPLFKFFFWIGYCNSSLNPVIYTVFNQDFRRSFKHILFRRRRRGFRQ
Procedure, shortened: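 CHO cells expressing human α2C receptor with chimeric Gαqi3 and mitochondrial obelin, loaded with 2.5 μg/ml coelenterazine for one day at 30 °C.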

Compound | blood pressure (adult female Wistar rats) | factor by which microcirculation is improved at this dose compared to placebo ([1]; at the MED, 30 min after administration) | MED [mg/kg] skin temperature ([1]; minimum effective dose for significant increase of skin temperature (ttest)) | MED [mg/kg] microcirculation ([1]; minimum effective dose for significantly improved microcirculation vs placebo, 30 min after administration) | IC50 (human α2C receptor)
COC[C@@]1(C)CCCN2CCc3c(oc4ccccc34)[C@@H]21 [ORM-12741, reference compound] | additional reduction in blood pressure | 1.9 x | 0.01 mg/kg | 0.1 mg/kg | 
C[C@@H]1CCCN(C2CCN(C(=O)c3ccc(C(=O)NC(c4ccc(C(F)(F)F)cc4)C(F)(F)F)cc3)CC2)C1 (stereo partly drawn) [Example 85, 4-{[(3R)-3-Methyl-1,4′-bipiperidin-1′-yl]carbonyl}-N-{2,2,2-trifluoro-1-[4-(trifluoromethyl)phenyl]ethyl}benzamide trifluoroacetic acid salt] |  |  |  |  | 200 nM
CC(C)(O)c1ccc(C(=O)N2CCC(N3CCCC(C4CC4)C3)CC2)cc1 (stereo not shown) [Example 126, (3-Cyclopropyl-1,4′-bipiperidin-1′-yl)[4-(2-hydroxypropan-2-yl)phenyl]methanone] |  |  |  |  | 12 nM
CC(C)(O)c1ccc(C(=O)N2CCC(N3CCCC(COC4CCC4)C3)CC2)cc1 (single isomer, unassigned; enantiomer 2) [Example 117, {3-[(Cyclobutyloxy)methyl]-1,4′-bipiperidin-1′-yl}[4-(2-hydroxypropan-2-yl)phenyl]methanone (enantiomer 2)] |  |  |  |  | 5 nM
